Data on eleven compounds can be found in the SangsterLogP compilation.

Broadly, the logP is the decadic logarithm of the partition coefficient of the neutral form, usually between octanol and water. Read a high logP as a more lipophilic compound. With `O=C/C=C/C#CC#Cc1ccccc1`, the logP came to 3.09.
The result for `c1csc(-c2ccc(-c3cccs3)s2)c1` reads 5.57.
As to `CC#CC#CC#C/C=C\C(=O)OC`, the logP was 2.42.
The result for `CC=CC#CC=C1C=CC(=O)O1` reads 2.09; that for `CC#CC#Cc1ccc(C#CC(Cl)COC(C)=O)s1` (stereo unspecified), 4.6.
The result for `C/C=C/C#CC#Cc1ccccc1` reads 4.76; that for `CC#CC#CC#Cc1ccccc1`, 4.91; that for `C/C=C/C#CC#CC#C/C=C/C(Cl)CO` (stereo unspecified), 3.91.
To `C=CC#Cc1ccc(-c2cccs2)s1` belongs 5.15; to `C/C=C/C#CC#C/C=C/C(=O)OC`, 2.45.
For `OC/C=C/C#CC#Cc1ccccc1`, the lipophilicity (logP) stood at 2.48.
